pEC50: −log10 of the molar value. Counter-ions that a name gives are not always drawn.
What was measured:
[1] = system: human M2 macrophages; assay: Inhibition of human M2 macrophage activity, hCCL22 in culture supernatant by ELISA; format: cell-based; conditions: for pEC50: hCCL22 secretion, THP-1 derived M2-like macrophages, compound present during 72 hours of differentiation
Procedure: To obtain human M2 macrophages, human monocytes (THP-1 monocyte, CD4 expression) were stabilized in a 96-well plate for 24 hours and then incubated in culture media containing 100 ng/mL phorbal 12-myristate-13-acetate (PMA; Sigma, P8139) for 24 hours to differentiate into M0 macrophages (macrophage-like phenotype). It was confirmed that differentiated M0 macrophages had reduced CD4 expression and expressed CD11b. M0 macrophages in the plate well were washed once with culture media and incubated in culture media containing 25 ng/mL hIL-4 (Peprotech, 200-04-50) and 25 ng/mL hIL-13 (Peprotech, 200-13-50) for 72 hours to differentiate into M2-like macrophages. Test compounds were diluted by concentration in M2 differentiation media and treated simultaneously during a differentiation period of 72 hours. The inhibitory effect of the test compounds on M2 macrophages was determined by measuring hCCL22 in the medium culture supernatant cultured for 72 hours using an ELISA assay (R&D system, DMD00). The results of the activity measurements are represented in Table 3 (EC50), Table 4 ([…] inhibitory activity at 5 μM) and Table 5 (hCCL22 inhibitory activity at 10 μM).

[2] = system: melanoma cells (B316F10); assay: Tumor growth inhibition in C57BL/6 syngeneic mouse model implanted with melanoma cells; format: in vivo; conditions: Mus musculus, po, 20 mg/kg orally once a day for 9 or 10 days; female C57BL/6 mice with implanted melanoma cells; tumor volume vs control group; read-out: TGI (%)
Procedure: The tumor growth inhibition effect of benzopyrene derivatives was evaluated in a C57BL/6 mouse tumor model (syngeneic mouse model) in which melanoma cells (B316F10) derived from C57BL/6 mice are implanted.
After the quarantine and acclimation period was over, a cell suspension prepared with 5×10^5 cells/0.1 mL PBS was filled into a disposable syringe and administered in an amount of 0.1 mL PBS/head subcutaneously to the right back of healthy test animals (female C57BL/6, 7 weeks old) for implantation. After cell line implantation, general symptoms were observed once daily during the engraftment and growth period. Animals with no abnormalities in their health and whose tumor volume reached 50 to 100 mm^3 when measured with a digital caliper were selected. Then, based on tumor volume and body weight, the groups were separated so that the average tumor volume per group was 70 to 100 mm^3. Ten (10) animals were separated per group, and 20 mg/kg of benzopyran derivatives were administered orally once a day for 9 or 10 days. Tumor volume was measured once every 2 or 3 days.
The measured tumor volume of the test compound administered groups was compared with that of the control group and is represented in Table 2 as the tumor growth inhibition (TGI, %).

| SMILES | pEC50 [1] | further results |
| --- | --- | --- |
| CC(=O)c1ccc(-n2c(=O)n3n(c2=O)C2C(=CC3)C(C)(C)Oc3cc(N4CCN(C)CC4)ccc32)cc1 (stereo not shown) [Example 51, 2-(4-acetylphenyl)-7,7-dimethyl-10-(4-methylpiperazin-1-yl)-5,12b-dihydro-1H,7H-chromeno[4,3-c][1,2,4]triazolo[1,2-a]pyridazine-1,3(2H)-dione] | 4.47 | – |
| CC(=O)c1ccc(-n2c(=O)n3n(c2=O)C2C(=CC3)C(C)(C)Oc3cc(N4CCN(S(C)(=O)=O)CC4)ccc32)cc1 (stereo not shown) [Example 52, 2-(4-acetylphenyl)-7,7-dimethyl-10-(4-(methylsulfonyl)piperazin-1-yl)-5,12b-dihydro-1H,7H-chromeno[4,3-c][1,2,4]triazolo[1,2-a]pyridazine-1,3(2H)-dione] | 4.58 | – |
| CC1(C)Oc2cc(O)ccc2C2C1=CCn1c(=O)n(-c3ccc(C(=O)N4CCOCC4)cc3)c(=O)n12 (stereo not shown) [Example 53, 10-hydroxy-7,7-dimethyl-2-(4-(morpholine-4-carbonyl)phenyl)-5,12b-dihydro-1H,7H-chromeno[4,3-c][1,2,4]triazolo[1,2-a]pyridazine-1,3(2H)-dione] | 5.35 | – |
| CC(C)(C)OC(=O)N1CCN(C(=O)c2ccc(-n3c(=O)n4n(c3=O)C3C(=CC4)C(C)(C)Oc4cc(O)ccc43)cc2)CC1 (stereo not shown) [Example 54, tert-butyl 4-(4-(10-hydroxy-7,7-dimethyl-1,3-dioxo-5,12b-dihydro-1H,7H-chromeno[4,3-c][1,2,4]triazolo[1,2-a]pyridazin-2(3H)-yl)benzoyl)piperazine-1-carboxylate] | 5.82 | – |
| CC(=O)c1ccc(-n2c(=O)n3n(c2=O)C2C(=CC3)C(C)(C)Oc3cc(OC(=O)C(C)(C)C)ccc32)cc1 (stereo not shown) [Example 58, 2-(4-acetylphenyl)-7,7-dimethyl-1,3-dioxo-2,3,5,12b-tetrahydro-1H,7H-chromeno[4,3-c][1,2,4]triazolo[1,2-a]pyridazin-10-yl pivalate] | 4.23 | – |
| CC(=O)Oc1ccc2c(c1)OC(C)(C)C1=CCn3c(=O)n(-c4ccc(C(C)=O)cc4)c(=O)n3C12 (stereo not shown) [Example 60, 2-(4-acetylphenyl)-7,7-dimethyl-1,3-dioxo-2,3,5,12b-tetrahydro-1H,7H-chromeno[4,3-c][1,2,4]triazolo[1,2-a]pyridazin-10-yl acetate] | – | inhibition in vivo at 20 mg/kg [2]: 56.5% |
| CC(=O)c1ccc(-n2c(=O)n3n(c2=O)C2C(=CC3)C(C)(C)Oc3cc(OC(=O)N4CCNCC4)ccc32)cc1 (stereo not shown) [Example 67, 2-(4-acetylphenyl)-7,7-dimethyl-1,3-dioxo-2,3,5,12b-tetrahydro-1H,7H-chromeno[4,3-c][1,2,4]triazolo[1,2-a]pyridazin-10-yl piperazine-1-carboxylate hydrochloride] | 4.76 | – |
| CC(=O)c1ccc(-n2c(=O)n3n(c2=O)C2C(=CC3)C(C)(C)Oc3cc(OC(=O)N[C@@H](CCCNC(=N)N)C(=O)O)ccc32)cc1 (stereo partly drawn) [Example 78, (((2-(4-acetylphenyl)-7,7-dimethyl-1,3-dioxo-2,3,5,12b-tetrahydro-1H,7H-chromeno[4,3-c][1,2,4]triazolo[1,2-a]pyridazin-10-yl)oxy)carbonyl)-L-arginine 2,2,2-trifluoroacetic acid] | 5.28 | – |
| CC(=O)c1ccc(-n2c(=O)n3n(c2=O)C2C(=CC3)C(C)(C)Oc3cc(OC(=O)N4CCN(C(=O)CN(C)C)CC4)ccc32)cc1 (stereo not shown) [Example 99, 2-(4-acetylphenyl)-7,7-dimethyl-1,3-dioxo-2,3,5,12b-tetrahydro-1H,7H-chromeno[4,3-c][1,2,4]triazolo[1,2-a]pyridazin-10-yl 4-(dimethylglycyl)piperazine-1-carboxylate hydrochloride] | 4.49 | – |
| CC(=O)c1ccc(-n2c(=O)n3n(c2=O)C2C(=CC3)C(C)(C)Oc3cc(OC(=O)N4C(C)CNCC4C)ccc32)cc1 (stereo not shown) [Example 100, 2-(4-acetylphenyl)-7,7-dimethyl-1,3-dioxo-2,3,5,12b-tetrahydro-1H,7H-chromeno[4,3-c][1,2,4]triazolo[1,2-a]pyridazin-10-yl 2,6-dimethylpiperazine-1-carboxylate hydrochloride] | 4.80 | – |
| CC(=O)c1ccc(-n2c(=O)n3n(c2=O)C2C(=CC3)C(C)(C)Oc3cc(OC(=O)N4C(C)CN(C(=O)[C@@H]5CCCN5)CC4C)ccc32)cc1 (stereo partly shown) [Example 101, 2-(4-acetylphenyl)-7,7-dimethyl-1,3-dioxo-2,3,5,12b-tetrahydro-1H,7H-chromeno[4,3-c][1,2,4]triazolo[1,2-a]pyridazin-10-yl 2,6-dimethyl-4-prolylpiperazine-1-carboxylate hydrochloride] | 4.75 | – |
| CC(=O)c1ccc(-n2c(=O)n3n(c2=O)C2C(=CC3)C(C)(C)Oc3cc(OCP(=O)(O)O)ccc32)cc1 (stereo not shown) [Example 115, disodium (((2-(4-acetylphenyl)-7,7-dimethyl-1,3-dioxo-2,3,5,12b-tetrahydro-1H,7H-chromeno[4,3-c][1,2,4]triazolo[1,2-a]pyridazin-10-yl)oxy)methyl)phosphonate] | < 4.10 | – |
| CC(=O)c1ccc(-n2c(=O)n3n(c2=O)C2C(=CC3)C(C)(C)Oc3cc(OC(=O)N4CCNCC4(C)C)ccc32)cc1 (stereo not shown) [Example 118, 2-(4-acetylphenyl)-7,7-dimethyl-1,3-dioxo-2,3,5,12b-tetrahydro-1H,7H-chromeno[4,3-c][1,2,4]triazolo[1,2-a]pyridazin-10-yl 2,2-dimethylpiperazine-1-carboxylate hydrochloride] | 5.28 | – |
| CC(=O)c1ccc(-n2c(=O)n3n(c2=O)C2C(=CC3)C(C)(C)Oc3cc(OC(=O)N4CCN(C(=O)CN(C)C)CC4(C)C)ccc32)cc1 (stereo not shown) [Example 119, 2-(4-acetylphenyl)-7,7-dimethyl-1,3-dioxo-2,3,5,12b-tetrahydro-1H,7H-chromeno[4,3-c][1,2,4]triazolo[1,2-a]pyridazin-10-yl 4-(dimethylglycyl)-2,2-dimethylpiperazine-1-carboxylate hydrochloride] | 5.02 | – |
| CC(=O)c1ccc(-n2c(=O)n3n(c2=O)C2C(=CC3)C(C)(C)Oc3cc(N4CCC4)ccc32)cc1 (stereo not shown) [Example 141, 2-(4-acetylphenyl)-10-(azetidin-1-yl)-7,7-dimethyl-5,12b-dihydro-1H,7H-chromeno[4,3-c][1,2,4]triazolo[1,2-a]pyridazine-1,3(2H)-dione] | 5.14 | inhibition at 10 µM ([1]; Macrophage, hCCL22 inhibitory activity at 10 μM, 72 hours): 94.2% |
| CC1(C)Oc2cc(OP(=O)(O)O)ccc2C2C1=CCn1c(=O)n(-c3ccc(C(F)(F)F)cc3)c(=O)n12 (stereo not shown) [Example 142, 7,7-dimethyl-1,3-dioxo-2-(4-(trifluoromethyl)phenyl)-2,3,5,12b-tetrahydro-1H,7H-chromeno[4,3-c][1,2,4]triazolo[1,2-a]pyridazin-10-yl dihydrogen phosphate] | 5.20 | – |
| CC1(C)Oc2cc(OP(=O)(O)O)ccc2C2C1=CCn1c(=O)n(-c3ccc(F)cc3)c(=O)n12 (stereo not shown) [Example 143, 2-(4-fluorophenyl)-7,7-dimethyl-1,3-dioxo-2,3,5,12b-tetrahydro-1H,7H-chromeno[4,3-c][1,2,4]triazolo[1,2-a]pyridazin-10-yl dihydrogen phosphate] | 5.03 | – |
| CC1(C)Oc2cc(OP(=O)(O)O)ccc2C2C1=CCn1c(=O)n(-c3ccc(C(C)(C)C)cc3)c(=O)n12 (stereo not shown) [Example 144, 2-(4-(tert-butyl)phenyl)-7,7-dimethyl-1,3-dioxo-2,3,5,12b-tetrahydro-1H,7H-chromeno[4,3-c][1,2,4]triazolo[1,2-a]pyridazin-10-yl dihydrogen phosphate] | 5.27 | – |
| CN(C)C(=O)Oc1ccc2c(c1)OC(C)(C)C1=CCn3c(=O)n(-c4ccc(C(F)(F)F)cc4)c(=O)n3C12 (stereo not shown) [Example 145, 7,7-dimethyl-1,3-dioxo-2-(4-(trifluoromethyl)phenyl)-2,3,5,12b-tetrahydro-1H,7H-chromeno[4,3-c][1,2,4]triazolo[1,2-a]pyridazin-10-yl dimethylcarbamate] | 4.11 | – |
| CN(C)C(=O)Oc1ccc2c(c1)OC(C)(C)C1=CCn3c(=O)n(-c4ccc(F)cc4)c(=O)n3C12 (stereo not shown) [Example 146, 2-(4-fluorophenyl)-7,7-dimethyl-1,3-dioxo-2,3,5,12b-tetrahydro-1H,7H-chromeno[4,3-c][1,2,4]triazolo[1,2-a]pyridazin-10-yl dimethylcarbamate] | < 4.10 | – |
| CN(C)C(=O)Oc1ccc2c(c1)OC(C)(C)C1=CCn3c(=O)n(-c4ccc(C(C)(C)C)cc4)c(=O)n3C12 (stereo not shown) [Example 147, 2-(4-(tert-butyl)phenyl)-7,7-dimethyl-1,3-dioxo-2,3,5,12b-tetrahydro-1H,7H-chromeno[4,3-c][1,2,4]triazolo[1,2-a]pyridazin-10-yl dimethylcarbamate] | < 4.10 | – |
